The values below come from patent publication US6040291A, “Antimicrobial peptide” (Seikagaku Corporation, priority 1998, dated 2000).

Some results are limits rather than exact numbers.

The test system of the experiment is E. coli O157:H7. In words: Antimicrobial activity on E. coli O157:H7 (CFU count, IC50). Particulars: Table 6. Format: cell-based. On the procedure:
Measurement method for antimicrobial activity: For the measurement of antimicrobial activity, E. coli [E. coli O157:H7 (collected from an E. coli O157 patients in Okayama prefecture, Kanagawa prefecture and Morioka city of Iwate Prefecture)], Klebsiella or Methicillin resistant Staphylococcus aureus; MRSA] was used.
These bacteria were grown in a liquid medium (Tryptosoy broth; manufactured by Eiken Kagaku). The bacteria cells in a logarithmic growth phase were collected, washed with PBS (pH 7.2), and adjusted to a final concentration of 5 ×10^3 to 1×10^4 cells/ml. To 450 μl of cell suspension, 50 μl of samples (peptide) in various concentrations were each added and mixtures were incubated at 37° C. for 1 hour. After the incubation, 100 μl of each reaction mixture was spread on an agarose medium (Nutrient agar; manufactured by Eiken Kagaku). This was incubated at 37° C. for 24 hours and the colony-forming unit (CFU) was counted to obtain 50% inhibition concentration (IC50).
Polymyxin B (known antimicrobial agent), A1, the peptide of the present invention (b), A3, the peptide of the present invention (d), A5 and A6 were used as samples and their antimicrobial activities on E. coli [E. coli O157:H7 (collected from E. coli O157 patients in Okayama prefecture, Kanagawa prefecture and Morioka city of Iwate Prefecture)] were examined by the above-described measurement method. […]

Consider Polymyxin B, for which the “Antimicrobial Activity on E. Coli O157:H7 (IC50)” value (isolate Kanagawa) was < 2.5 µg/mL and the “Antimicrobial Activity on E. Coli O157:H7 (IC50)” value (isolate Okayama) was determined as 0.2 µg/mL.
